Data on ten compounds can be found in patent US20090099169A1, “Benzofuran Compounds As EP1 Receptor Antagonists” (GLAXO GROUP LIMITED, priority 2006, published 2009).

For one assay, the target named is T1, human EP3 receptor (Homo sapiens, UniProt P43115).
T1 construct: expressed in transfected cells; host or cells: CHO-K1
T1 sequence (P43115 1-390): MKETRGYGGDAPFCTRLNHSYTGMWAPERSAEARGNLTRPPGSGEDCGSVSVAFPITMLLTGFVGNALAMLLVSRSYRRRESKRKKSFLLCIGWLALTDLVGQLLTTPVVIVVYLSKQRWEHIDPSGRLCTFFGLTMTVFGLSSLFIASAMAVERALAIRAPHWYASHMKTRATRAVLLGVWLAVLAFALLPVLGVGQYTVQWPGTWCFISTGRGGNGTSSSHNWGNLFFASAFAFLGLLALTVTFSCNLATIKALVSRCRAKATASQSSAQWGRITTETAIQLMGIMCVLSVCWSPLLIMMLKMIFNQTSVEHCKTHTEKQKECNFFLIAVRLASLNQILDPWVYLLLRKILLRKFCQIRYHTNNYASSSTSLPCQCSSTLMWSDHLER
Nature of the assay: human EP3 calcium mobilisation assay. It is filed as cell-based. The note with it: CHO-K1 cells, antagonism of PGE2; averages of a number of experiments; read-out: functional pKi value (human EP3 calcium mobilisation assay) (converted). Here is the method:
Briefly, the antagonist properties of compounds are assessed by their ability to inhibit the mobilisation of intracellular calcium ([Ca^2+]i) in response to activation of EP1 or EP3 receptors by the natural agonist hormone prostaglandin E2 (PGE2). Increasing concentrations of antagonist reduce the amount of calcium that a given concentration of PGE2 can mobilise. The net effect is to displace the PGE2 concentration-effect curve to higher concentrations of PGE2. The amount of calcium produced is assessed using a calcium-sensitive fluorescent dye such as Fluo-4, AM and a suitable instrument such as a Fluorimetric Imaging Plate Reader (FLIPR). Increasing amounts of [Ca^2+]i produced by receptor activation increase the amount of fluorescence produced by the dye and give rise to an increasing signal. The signal may be detected using the FLIPR instrument and the data generated may be analysed with suitable curve-fitting software.
The human EP1 or EP3 calcium mobilisation assay (hereafter referred to as ‘the calcium assay’) utilises Chinese hamster ovary-K1 (CHO-K1) cells into which a stable (PCIN; BioTechniques 20 (1996): 102-110) vector containing either EP1 or EP3 cDNA has previously been transfected. Cells are cultured in suitable flasks containing culture medium such as DMEM:F-12 supplemented with 10% v/v foetal calf serum, 2 mM L-glutamine, 0.25 mg/ml geneticin, 100 μM flurbiprofen and 10 μg/ml puromycin.
For assay, cells are harvested using a proprietary reagent that dislodges cells such as Versene. Cells are re-suspended in a suitable quantity of fresh culture media for introduction into a 384-well plate. Following incubation for 24 hours at 37° C. the culture media is replaced with a medium containing Fluo-4 and the detergent pluronic acid, and a further incubation takes place. Concentrations of compounds are then added to the plate in order to construct concentration-effect curves. This may be performed on the FLIPR in order to assess the agonist properties of the compounds. Concentrations of PGE2 are then added to the plate in order to assess the antagonist properties of the compounds.
The data so generated may be analysed by means of a computerised curve-fitting routine. The concentration of compound that elicits a half-maximal inhibition of the calcium mobilisation induced by PGE2 (pIC50) may then be estimated.
On the technique in general: A change in cytosolic calcium serves as a functional read-out for many receptors and channels.

Assay [1] deals with T2, human EP1 receptor (Homo sapiens, UniProt P34995).
T2 sequence (P34995 1-402): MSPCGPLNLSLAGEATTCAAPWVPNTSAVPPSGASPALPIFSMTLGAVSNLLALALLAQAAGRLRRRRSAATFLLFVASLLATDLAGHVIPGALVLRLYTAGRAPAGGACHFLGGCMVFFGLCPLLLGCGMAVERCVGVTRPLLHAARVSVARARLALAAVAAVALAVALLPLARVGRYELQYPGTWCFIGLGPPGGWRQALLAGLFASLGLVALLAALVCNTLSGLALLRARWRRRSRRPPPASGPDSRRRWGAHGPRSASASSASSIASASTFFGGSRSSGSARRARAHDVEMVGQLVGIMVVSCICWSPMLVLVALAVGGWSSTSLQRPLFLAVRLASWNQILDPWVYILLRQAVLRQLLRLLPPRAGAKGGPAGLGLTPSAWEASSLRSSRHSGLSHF
Nature of the assay: human EP1 calcium mobilisation assay. It counts as cell-based. The arrangement: expressed in transfected cells. Particulars: CHO-K1 cells, antagonism of PGE2; averages of a number of experiments; read-out: functional pKi value (human EP1 calcium mobilisation assay) (converted). Put shortly:
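CHO-K1 cells stably transfected with human EP1 or EP3, loaded with Fluo-4 after 24 h culture, treated with compound, then challenged with PGE2. Calcium-driven fluorescence read on FLIPR; pIC50 is half-maximal inhibition of PGE2-induced calcium mobilisation, from curve fitting.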

For assay [2], the target named is T2, human EP1 receptor. The assay can be described thus: Binding assay for the human prostanoid EP1 receptor (radioligand competition). The arrangement: expressed in transfected cells; host or cells: CHO-K1 (membranes). The note with it: CHO-K1 membranes; [3H]-PGE2 for Examples 1-17, 19, 33, 34, 60 and 61, 3-{2-[5-Bromo-2-(2,4-difluorobenzyloxy)-phenyl]-5-methyl-pyrrol-1-yl}-6-[3H3-methoxy]methoxy-benzoic acid for the remaining; averages of a number of experiments; read-out: pIC50 value (binding assay for the human prostanoid EP1 receptor) (converted). Here is the method: Compound potencies are determined using a radioligand binding assay. In this assay compound potencies are determined from their ability to compete with tritiated prostaglandin E2 ([^3H]-PGE2) for binding to the human EP1 receptor.
This assay utilises Chinese hamster ovary-K1 (CHO-K1) cells into which a stable vector containing the EP1 cDNA has previously been transfected. Cells are cultured in suitable flasks containing culture medium such as DMEM:F-12 supplemented with 10% v/v foetal calf serum, 2 mM L-glutamine, 0.25 mg/ml geneticin, 10 μg/ml puromycin and 10 μM indomethacin.
Cells are detached from the culture flasks by incubation in calcium and magnesium free phosphate buffered saline containing 1 mM disodium ethylenediaminetetraacetic acid (Na2EDTA) and […] indomethacin for 5 min. The cells are isolated by centrifugation at 250×g for 5mins and suspended in an ice cold buffer such as 50 mM Tris, 1 mM Na2EDTA, 140 mM NaCl, 10 μM indomethacin (pH 7.4). The cells are homogenised using a Polytron tissue disrupter (2×10 s burst at full setting), centrifuged at 48,000×g for 20mins and the pellet containing the membrane fraction is washed (optional) three times by suspension and centrifugation at 48,000×g for 20mins. The final membrane pellet is suspended in an assay buffer such as 10 mM 2-[N-morpholino]ethanesulphonic acid, 1 mM Na2EDTA, 10 mM MgCl2 (pH 6). Aliquots are frozen at −80° C. until required.
For the binding assay the cell membranes, competing compounds and [^3H]-PGE2 (3 nM final assay concentration) are incubated in a final volume of 100 μl for 30 min at 30° C. All reagents are prepared in assay buffer. Reactions are terminated by rapid vacuum filtration over GF/B filters using a Brandell cell harvester. The filters are washed with ice cold assay buffer, dried and the radioactivity retained on the filters is measured by liquid scintillation counting in Packard TopCount scintillation counter.
The data are analysed using non linear curve fitting techniques to determine the concentration of compound producing 50% inhibition of specific binding (IC50).
Alternatively a similar assay may be carried out using 3-{2-[5-Bromo-2-(2,4-difluoro-benzyloxy)-phenyl]-5-methyl-pyrrol-1-yl}-6-[^3H3-methoxy]methoxy-benzoic acid instead of [^3H]-PGE2.
For the binding assay using 3-{2-[5-Bromo-2-(2,4-difluoro-benzyloxy)-phenyl]-5-methyl-pyrrol-1-yl}-6-[^3H3-methoxy]methoxy-benzoic acid instead of [^3H]-PGE2 the assay is carried out using a similar procedure to that described above using [^3H]-PGE2 with the following changes:
The cell membranes, competing compounds and 3-{2-[5-Bromo-2-(2,4-difluoro-benzyloxy)-phenyl]-5-methyl-pyrrol-1-yl}-6-[^3H3-methoxy]methoxy-benzoic acid (0.2 nM final assay concentration) are incubated in a final volume of 400 μl for 45 min at 37° C. All reagents are prepared in assay buffer. Reactions are terminated by rapid vacuum filtration over GF/B filters using a Brandell cell harvester. The filters are washed with water at ambient temperature, dried and the radioactivity retained on the filters is measured by liquid scintillation counting in Packard TopCount scintillation counter.
The preparation of 3-{2-[5-Bromo-2-(2,4-difluoro-benzyloxy)-phenyl]-5-methyl-pyrrol-1-yl}-6-methoxy-benzoic acid is described in WO 03/101959 and in Hall et al, Biorg. Med. Chem. Lett., 2007, 17, 916-920. The tritiated version may be prepared via conventional routes, e.g. from 3-{2-[5-bromo-2-(2,4-difluoro-benzyloxy)-phenyl]-5-methyl-pyrrol-1-yl}-6-hydroxy-benzoic acid or 3-{2-[5-bromo-2-(2,4-difluoro-benzyloxy)-phenyl]-5-methyl-pyrrol-1-yl}-6-hydroxy-benzoic acid methyl ester.
Background: Loss of bound radioactivity is the signal in a displacement assay; it reports binding, not function.

Each structure is given as a SMILES string. Where a name gives a salt, the structure may show the parent alone.

As to `CCCc1cc2cc(Cl)cc(Cn3nc(C(=O)O)cc3C)c2o1` [Example 21, 1-[(5-chloro-2-propyl-1-benzofuran-7-yl)methyl]-5-methyl-1H-pyrazole-3-carboxylic Acid], the values for the Ki at human EP3 receptor and on human EP1 receptor [1] were 501 to 10000 nM and not above 316 nM, respectively. Moreover, the IC50 on human EP1 receptor [2] was not above 100 nM.

In the case of `Cc1cc(C(=O)O)nn1Cc1cc(S(C)(=O)=O)cc2cc(C(C)C)oc12` [Example 22, 5-methyl-1-{[2-(1-methylethyl)-5-(methylsulfonyl)-1-benzofuran-7-yl]methyl}-1H-pyrazole-3-carboxylic Acid], the results for the Ki at human EP3 receptor and at human EP1 receptor [1] were 501 to 10000 nM and not above 316 nM, respectively. Further, the IC50 on human EP1 receptor [2] was not above 100 nM.

Take `Cc1cc(C(=O)O)nn1Cc1cc(Cl)cc2cc(C3CCCCC3)oc12` [Example 26, 1-[(5-Chloro-2-cyclohexyl-1-benzofuran-7-yl)methyl]-5-methyl-1H-pyrazole-3-carboxylic Acid]: the Ki on human EP3 receptor was 501 to 10000 nM; at human EP1 receptor [1], not above 316 nM. In addition, the IC50 at human EP1 receptor [2] was not above 100 nM.

Turning to `CC(C)c1cc2cc(Cl)cc(Cc3cccc(C(=O)NN4CCOCC4)n3)c2o1` [Example 44, 6-{[5-Chloro-2-(1-methylethyl)-1-benzofuran-7-yl]methyl}-N-4-morpholinyl-2-pyridinecarboxammide], the figures for the Ki at human EP3 receptor and on human EP1 receptor [1] were 501 to 10000 nM and not above 316 nM, respectively. Further, on human EP1 receptor [2], the IC50 was not above 100 nM.

With `Cc1cc(C(=O)Nc2ccc(CN3CCCC3)cc2)nn1Cc1cc(Br)cc2cc(C(C)C)oc12` [Example 51, 1-{[5-Bromo-2-(1-methylethyl)-1-benzofuran-7-yl]methyl}-5-methyl-N-[4-(1-pyrrolidinylmethyl)phenyl]-1H-pyrazole-3-carboxamidehydrochloride], the Ki at human EP3 receptor is 501 to 10000 nM; at human EP1 receptor [1], not above 316 nM. The IC50 on human EP1 receptor [2] is not above 100 nM.

For the compound `CC(C)c1cc2cc(Cl)cc(Cc3ccc(C(=O)Nc4ccc(CN5CCCC5)cc4)o3)c2o1` [Example 53, 5-{[5-Chloro-2-(1-methylethyl)-1-benzofuran-7-yl]methyl}-N-[4-(1-pyrrolidinylmethyl)phenyl]-2-furancarboxamide], the Ki on human EP3 receptor was 501 to 10000 nM; at human EP1 receptor [1] it was not above 316 nM. The IC50 at human EP1 receptor [2] is not above 100 nM.

For `CC(C)c1cc2cc(Cl)cc(Cc3ccc(C(=O)Nc4ccc(CN5CCC(O)CC5)cc4)o3)c2o1` [Example 55, 5-{[5-Chloro-2-(1-methylethyl)-1-benzofuran-7-yl]methyl}-N-{4-[(4-hydroxy-1-piperidinyl)methyl]phenyl}-2-furancarboxamide Hydrochloride], the figures for the Ki at human EP3 receptor and on human EP1 receptor [1] were 501 to 10000 nM and not above 316 nM, respectively. In addition, the IC50 on human EP1 receptor [2] was not above 100 nM.

In the case of `CCNCc1ccc(NC(=O)c2ccc(Cc3cc(Cl)cc4cc(C(C)C)oc34)o2)cc1` [Example 56, 5-{[5-Chloro-2-(1-methylethyl)-1-benzofuran-7-yl]methyl}-N-{4-[(ethylamino)methyl]phenyl}-2-furancarboxamide Hydrochloride], the Ki at human EP3 receptor is 501 to 10000 nM; at human EP1 receptor [1], not above 316 nM.

As to `Cc1cc(C(=O)Nc2ccc(CO)cc2)nn1Cc1cc(Br)cc2cc(C(C)C)oc12` [Example 71], the Ki at human EP3 receptor is 501 to 10000 nM; at human EP1 receptor [1], not above 316 nM. In addition, at human EP1 receptor [2], the IC50 was not above 100 nM.

In the case of `CC(C)c1cc2cc(Cl)cc(Cc3ccc(C(=O)Nc4ccc(CO)cc4)o3)c2o1` [Example 72, 5-{[5-Chloro-2-(1-methylethyl)-1-benzofuran-7-yl]methyl}-N-[4-(hydroxymethyl)phenyl]-2-furancarboxamide], the Ki on human EP3 receptor was 501 to 10000 nM; on human EP1 receptor [1], not above 316 nM. The IC50 at human EP1 receptor [2] was not above 100 nM.
